In patent US20260159533A1, “INHIBITORS OF COMPLEMENT FACTORS AND USES THEREOF” (Annexon, Inc., priority 2022, published 2026):
Structures can show the parent of a compound that is named as a salt.

The molecules below were run against T1, human C1s protein (Homo sapiens, UniProt P09871) (assay: recombinant C1s enzymatic assay (YLGR-Rh110-dPro substrate hydrolysis, fluorescence)). Conditions: recombinant human C1s 2.5 nM, substrate YLGR-Rh110-dPro 20 μM, 15 min pre-incubation, 60 min RT; read-out: rec. hC11s pIC50 (converted).
T1 construct: purchased R&D Systems or Complement Technologies 2060-SE or A104
T1 sequence (P09871 16-688): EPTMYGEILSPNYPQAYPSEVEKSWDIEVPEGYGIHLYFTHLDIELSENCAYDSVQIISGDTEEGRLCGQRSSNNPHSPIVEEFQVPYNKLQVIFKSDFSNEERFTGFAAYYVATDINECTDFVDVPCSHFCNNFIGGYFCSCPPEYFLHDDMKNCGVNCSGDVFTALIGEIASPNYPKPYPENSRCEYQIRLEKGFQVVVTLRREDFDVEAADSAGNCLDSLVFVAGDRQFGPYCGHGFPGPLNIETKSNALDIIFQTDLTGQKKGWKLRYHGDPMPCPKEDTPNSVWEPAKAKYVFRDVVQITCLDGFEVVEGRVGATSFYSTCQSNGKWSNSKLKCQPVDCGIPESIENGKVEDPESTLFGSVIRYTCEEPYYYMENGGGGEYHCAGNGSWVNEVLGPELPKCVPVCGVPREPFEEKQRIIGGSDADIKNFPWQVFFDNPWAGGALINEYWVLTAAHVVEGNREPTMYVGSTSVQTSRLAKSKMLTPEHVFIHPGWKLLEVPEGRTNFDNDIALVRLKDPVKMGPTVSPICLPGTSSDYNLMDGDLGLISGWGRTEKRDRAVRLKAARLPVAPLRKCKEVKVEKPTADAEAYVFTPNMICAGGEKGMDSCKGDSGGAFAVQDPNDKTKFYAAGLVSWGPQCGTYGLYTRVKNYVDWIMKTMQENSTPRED
Type: biochemical
Protocol: Compound testing in the purified or recombinant C1s enzymatic assay C1s is a serine protease; its enzymatic activity is measured in vitro by the hydrolysis of the synthetic substrate YLGR-Rh110-dPro (Kerr F K, O'Brien G, Quinsey N S, Whisstock J C, Boyd S, de la Banda M G, Kaiserman D, Matthews A Y, Bird P I, Pike R N. Elucidation of the substrate specificity of the Cis protease of the classical complement pathway. J. Biol. Chem. (2005) 280, 39510-39514). The enzyme cleaves the substrate with the release of Rh110 which is highly fluorescent. Cis inhibitors prevent the hydrolysis of the substrate thus resulting in a decrease of the signal.
The recombinant C1s enzymatic assay is performed using the human C1s protein (R&D Systems, 2060-SE or Complement Technologies, A104). The assay buffer composition is: 50 mM HEPES pH 7.5 (Sigma, H3375), 150 mM NaCl (Sigma, S7653), 0.2% PEG 8000 (VWR, AA43443-22), 0.01% Pluronic F127 (Sigma, P2243). On the day of the experiment 0.1 mg/mL BSA (Sigma, B4287) is added fresh to the buffer. The test item stock solutions are serially diluted 1:3 or 1:4 or 1:5 with DMSO, 11-point curves, in a 384-well compound plate. Nafamostat concentration curve is always included in the assay plate as a reference control.
The assay plate is prepared by dispensing 0.25 μL from compound plate into a 384-well black assay plate (assay plate, Greiner Fluotrac 200, 781076, VWR 736-0140). The high controls are prepared dispensing in 0.25 μL DMSO in column 23, rows AH or AP and low controls with 0.25 μL of 0.1 μM Nafamostat. Cis solution is prepared as 2× of the 2.5 nM final assay concentration. The YLGR-Rh110-dPro substrate is prepared as 2× of the final assay concentration of 20 μM. 5 μL/well of 2× enzyme solution is dispensed and pre-incubated for 15 min with the compounds. The enzymatic reaction is the started with 5 μL/well of the 2× substrate solution. The plate is incubated for 60 min RT in the dark and fluorescence is measured (ex 485/em 535 nm) using an Envision (PerkinElmer) or an equivalent instrument.

Compound	IC50
COc1cc(-n2cc(C(F)F)cn2)c(-c2ccc3c(N)cnnc3c2)cc1B(O)O [Example 29, [5-(4-aminocinnolin-7-yl)-4-[4-(difluoromethyl)-1H-pyrazol-1-yl]-2-methoxyphenyl]boronic acid formic acid salt]	0.977 nM
COc1cc(B(O)O)cc(-c2ccc3c(N)cnnc3c2)c1-n1cc(C(F)F)cn1 [Example 30, [3-(4-aminocinnolin-7-yl)-4-[4-(difluoromethyl)-1H-pyrazol-1-yl]-5-methoxyphenyl]boronic acid formic acid salt]	2.24 nM
COc1cc(-c2nc[nH]n2)c(-c2ccc3c(N)cnnc3c2)cc1B(O)O [Example 31, [5-(4-aminocinnolin-7-yl)-2-methoxy-4-(1H-1,2,4-triazol-3-yl)phenyl]boronic acid]	1.05 nM
COc1cc(-c2ncco2)c(-c2ccc3c(N)cnnc3c2)cc1B(O)O [Example 32, [5-(4-aminocinnolin-7-yl)-2-methoxy-4-(1,3-oxazol-2-yl)phenyl]boronic acid formic acid salt]	0.832 nM
COc1cc(-n2nccn2)c(-c2ccc3c(N)cnnc3c2)cc1B(O)O [Example 33, [5-(4-aminocinnolin-7-yl)-2-methoxy-4-(2H-1,2,3-triazol-2-yl)phenyl]boronic acid]	1.07 nM
Nc1cnnc2cc(-c3cc(B(O)O)c(OC4CC(F)(F)C4)cc3-n3cccn3)ccc12 [Example 34, [5-(4-aminocinnolin-7-yl)-2-(3,3-difluorocyclobutoxy)-4-(1H-pyrazol-1-yl)phenyl]boronic acid formic acid salt]	11.5 nM
COc1cc(-c2cc[nH]n2)c(-c2ccc3c(N)cnnc3c2)cc1B(O)O [Example 36, [5-(4-aminocinnolin-7-yl)-2-methoxy-4-(1H-pyrazol-3-yl)phenyl]boronic acid formic acid salt]	1.29 nM
COc1cnn(-c2cc(OC)c(B(O)O)cc2-c2ccc3c(N)cnnc3c2)c1 [Example 37, [5-(4-aminocinnolin-7-yl)-2-methoxy-4-(4-methoxypyrazol-1-yl)phenyl]boronic acid formic acid salt]	0.912 nM
COc1cc(-c2nccs2)c(-c2ccc3c(N)cnnc3c2)cc1B(O)O [Example 38, [5-(4-aminocinnolin-7-yl)-2-methoxy-4-thiazol-2-yl-phenyl]boronic acid formic acid salt]	1.02 nM
CC(C)Oc1cc(-n2cccn2)c(-c2ccc3c(N)cnnc3c2)cc1B(O)O [Example 39, [5-(4-aminocinnolin-7-yl)-2-propan-2-yloxy-4-pyrazol-1-ylphenyl]boronic acid formic acid salt]	2.69 nM
COc1cc(-n2cc(F)cn2)c(-c2ccc3c(N)cnnc3c2)cc1B(O)O [Example 40, [5-(4-aminocinnolin-7-yl)-4-(4-fluoropyrazol-1-yl)-2-methoxyphenyl]boronic acid]	1.58 nM
Cc1cc(-c2cc[nH]n2)c(-c2ccc3c(N)cnnc3c2)cc1B(O)O [Example 41, [5-(4-aminocinnolin-7-yl)-2-methyl-4-(1H-pyrazol-3-yl)phenyl]boronic acid]	24.5 nM
Cc1cc(-c2ncco2)c(-c2ccc3c(N)cnnc3c2)cc1B(O)O [Example 42, [5-(4-aminocinnolin-7-yl)-2-methyl-4-oxazol-2-yl-phenyl]boronic acid formic acid salt]	2.04 nM
COc1cc(-c2c[nH]cn2)c(-c2ccc3c(N)cnnc3c2)cc1B(O)O [Example 45, [5-(4-aminocinnolin-7-yl)-4-(1H-imidazol-4-yl)-2-methoxyphenyl]boronic acid]	5.5 nM
COc1cc(-c2ncc[nH]2)c(-c2ccc3c(N)cnnc3c2)cc1B(O)O [Example 46, [5-(4-aminocinnolin-7-yl)-4-(1H-imidazol-2-yl)-2-methoxy-phenyl]boronic acid]	3.89 nM
COc1cc(-n2cccn2)c(-c2ccc3c(N)nnc(C)c3c2)cc1B(O)O [Example 47, [5-(1-amino-4-methyl-phthalazin-6-yl)-2-methoxy-4-pyrazol-1-yl-phenyl]boronic acid]	1.7 nM
COc1cc(-n2cccn2)c(-c2ccc3c(N)nccc3c2)cc1B(O)O [Example 48, [5-(1-amino-6-isoquinolyl)-2-methoxy-4-pyrazol-1-yl-phenyl]boronic acid formic acid salt]	3.89 nM
COc1cc(-c2ncc(C)s2)c(-c2ccc3c(N)cnnc3c2)cc1B(O)O [Example 50, [5-(4-aminocinnolin-7-yl)-2-Methoxy-4-(5-methylthiazol-2-yl)phenyl]boronic acid formic acid salt]	1.17 nM
Cc1cc(-c2nccs2)c(-c2ccc3c(N)cnnc3c2)cc1B(O)O [Example 53, [5-(4-aminocinnolin-7-yl)-2-methyl-4-thiazol-2-yl-phenyl]boronic acid formic acid salt]	9.55 nM
COc1cc(-c2cn[nH]c2)c(-c2ccc3c(N)cnnc3c2)cc1B(O)O [Example 54, [5-(4-aminocinnolin-7-yl)-2-methoxy-4-(1H-pyrazol-4-yl)phenyl]boronic acid]	6.31 nM
COc1cc(-n2cc(N3CCOCC3)cn2)c(-c2ccc3c(N)cnnc3c2)cc1B(O)O [Example 58, [5-(4-aminocinnolin-7-yl)-2-methoxy-4-(4-morpholinopyrazol-1-yl)phenyl]boronic acid formic acid salt]	2 nM
Nc1cnnc2cc(-c3cc(B(O)O)ccc3-c3ccccn3)ccc12 [Example 63, [3-(4-aminocinnolin-7-yl)-4-(2-pyridyl)phenyl]boronic acid formic acid salt]	15.5 nM
Nc1cnnc2cc(-c3cc(B(O)O)c(Oc4ccccc4)cc3-n3cccn3)ccc12 [Example 64, [5-(4-aminocinnolin-7-yl)-2-phenoxy-4-pyrazol-1-yl-phenyl]boronic acid formic acid salt]	12.3 nM
Nc1cnnc2cc(-c3cc(B(O)O)cc4c3-n3nccc3CCO4)ccc12 [Example 65, [[10-(4-aminocinnolin-7-yl)-4,5-dihydropyrazolo[5,1-d][1,5]benzoxazepin-8-yl]boronic acid formic acid salt]	2.4 nM
COc1cnc(-c2cc(OC)c(B(O)O)cc2-c2ccc3c(N)cnnc3c2)s1 [Example 68, [5-(4-aminocinnolin-7-yl)-2-methoxy-4-(5-methoxy-1,3-thiazol-2-yl)phenyl]boronic acid formic acid salt]	0.692 nM
Nc1cnnc2cc(-c3cc4c(cc3-n3cccn3)OCCOB4O)ccc12 [Example 70, 8-(4-aminocinnolin-7-yl)-7-(1H-pyrazol-1-yl)-3,4-dihydro-1H-2,5,1-benzodioxaborepin-1-ol]	1.26 nM
CC1COB(O)c2cc(-c3ccc4c(N)cnnc4c3)c(-n3cccn3)cc2O1 (centres unmarked) [Example 71, 7-(1-hydroxy-4-methyl-7-pyrazol-1-yl-3,4-dihydro-2,5,1-benzodioxaborepin-8-yl)cinnolin-4-amine]	2.09 nM
Nc1cnnc2cc(-c3cc4c(cc3-c3ncco3)OCCOB4O)ccc12 [Example 74, 7-(1-hydroxy-7-oxazol-2-yl-3,4-dihydro-2,5,1-benzodioxaborepin-8-yl)cinnolin-4-amine]	1.12 nM
COc1cc(-c2ncc(F)s2)c(-c2ccc3c(N)cnnc3c2)cc1B(O)O [Example 75, [5-(4-aminocinnolin-7-yl)-4-(5-fluorothiazol-2-yl)-2-methoxy-phenyl]boronic acid]	0.977 nM
